≈ marks a conversion by molar mass, not a printed value. Like-named read-outs stand apart in the source and are kept apart here.
Key:
[1] = test system: Mycobacterium tuberculosis H37Rv strain; assay: Antitubercular activity, broth dilution MIC; type: cell-based; conditions: for MIC: Mycobacterium tuberculosis, H37RV, 504 h, read-out: Mtb (H37Rv Strain) (MIC in µM); for MIC / Mtb (H37Rv Strain) (MIC in µM): broth dilution, 21 days at 37 °C, mean of three independent experiments, converted from µg/mL; for antitubercular activity of F compounds over the Cl-containing compounds: MIC 20.68 µM (9, 11) vs. 78.46 µM (1, 3); for antitubercular potency relative to the standard pyrazinamide: ratio of MICs, pyrazinamide MIC 25.34 ± 2 µM
[2] = test system: normal human liver cell lines (L02); assay: Cytotoxic activity on normal cells, MTT assay; type: cell-based; conditions: for IC50: Homo sapiens, same protocol as DU-145, read-out: Normal Liver Cell Line (L02) (IC50 in µg/mL)
Protocol: (§1) In both the assays, the IC50 values of the tested compounds were compared with the positive control Methotrexate (Mtx). The reduction of the soluble MTT to blue-color formazan is the principle underlined in MTT assay and such change is chiefly due to the action of intracellular mitochondrial reductase in the living cells. […] Later, the desired concentrations of the compounds were achieved by dissolving in sterile water. The cells were transferred on to 96-well plates at 100 µL total volume and with a density of 1 × 10^4 cells per well. The cells were permitted to adhere for a period of 24 h and then the assay medium was replaced with a fresh medium containing target compounds and incubated in DMEM with 10% fetal bovine serum (FBS) medium at 37 °C for an additional 48 h. Later, the medium was replaced with 90 μL of fresh DMEM without FBS. The above wells were treated with 10 μL of MTT reagent (5 mg/mL of stock solution in DMEM without FBS) and incubated for 3–4 h at 37 °C. The formed blue formazan crystals were dissolved in 200 μL of DMSO. The optical density was then determined at 570 nm using a micro plate reader. The assay was executed in triplicate for three independent experiments. […] The IC50 values measured in µg/mL for the antiproliferative were converted and expressed in µM. Additionally, all the compounds were also assessed for their cytotoxic activity on the normal human liver cell lines (L02) using the same protocol discussed above.

[3] = test system: prostate cancer cell line (DU-145); assay: Antiproliferative activity, MTT assay; conditions: mean ± SD (n = 3), converted from µg/mL
Protocol: as §1

[4] = Homo sapiens, DU-145, 48 h, read-out: Prostate Cancer Cell Line (DU-145) (IC50 in µM), MTT, 48 h
[5] = read-out: Prostate Cancer Cell Line (DU-145) (IC50 in µM), MTT, 48 h

O=C(/C=C/c1sc(Cl)nc1Cl)c1ccccc1Cl [Compound 1, (E)-1-(2-chlorophenyl)-3-(2,4-dichlorothiazol-5-yl)prop-2-en-1-one]
MIC [1]: 78.5 ± 1 µM (≈ 25 µg/mL) | IC50 [2]: > 70 µg/mL | melting point: 80 °C | IC50 [3, 4]: 100 ± 2 µM

O=C(/C=C/c1sc(Cl)nc1Cl)c1cccc(Cl)c1 [Compound 2, (E)-1-(3-chlorophenyl)-3-(2,4-dichlorothiazol-5-yl)prop-2-en-1-one]
MIC [1]: 313.9 ± 1 µM (≈ 100 µg/mL) | IC50 [2]: > 70 µg/mL | melting point: 88 °C | IC50 [3, 4]: 1607 ± 2 µM

O=C(/C=C/c1sc(Cl)nc1Cl)c1ccc(Cl)cc1 [Compound 3, (E)-1-(4-chlorophenyl)-3-(2,4-dichlorothiazol-5-yl)prop-2-en-1-one]
MIC [1]: 78.5 ± 1 µM (≈ 25 µg/mL) | IC50 [2]: > 70 µg/mL | melting point: 104 °C | IC50 [3, 4]: 401.8 ± 1 µM

O=C(/C=C/c1sc(Cl)nc1Cl)c1cccc(Cl)c1Cl [Compound 4, (E)-1-(2,3-dichlorophenyl)-3-(2,4-dichlorothiazol-5-yl)prop-2-en-1-one]
MIC [1]: 142 ± 2 µM (≈ 50 µg/mL) | IC50 [2]: > 70 µg/mL | melting point: 89 °C | IC50 [3, 4]: 181.3 ± 1 µM

O=C(/C=C/c1sc(Cl)nc1Cl)c1cc(Cl)ccc1Cl [Compound 6, (E)-1-(2,5-dichlorophenyl)-3-(2,4-dichlorothiazol-5-yl)prop-2-en-1-one]
MIC [1]: 141.6 ± 1 µM (≈ 50 µg/mL) | IC50 [2]: > 70 µg/mL | melting point: 84 °C | IC50 [3, 4]: 2900.5 ± 2 µM

O=C(/C=C/c1sc(Cl)nc1Cl)c1ccc(Cl)c(Cl)c1 [Compound 8, (E)-1-(3,4-dichlorophenyl)-3-(2,4-dichlorothiazol-5-yl)prop-2-en-1-one]
MIC [1]: 141.6 ± 1 µM (≈ 50 µg/mL) | IC50 [2]: > 70 µg/mL | melting point: 106 °C | IC50 [3, 4]: 1450.3 ± 1 µM

O=C(/C=C/c1sc(Cl)nc1Cl)c1ccccc1F [Compound 9, (E)-1-(2-fluorophenyl)-3-(2,4-dichlorothiazol-5-yl)prop-2-en-1-one]
antitubercular activity of F compounds over the Cl-containing compounds [1]: 3.79 fold | MIC [1]: 20.7 ± 2 µM (≈ 6.25 µg/mL) | IC50 [2]: > 70 µg/mL | melting point: 91 °C | IC50 [3, 4]: 53 ± 2 µM

O=C(/C=C/c1sc(Cl)nc1Cl)c1cccc(F)c1 [Compound 10, (E)-1-(3-fluorophenyl)-3-(2,4-dichlorothiazol-5-yl)prop-2-en-1-one]
MIC [1]: 165.5 ± 1 µM (≈ 50 µg/mL) | IC50 [2]: > 70 µg/mL | melting point: 112 °C | IC50 [3, 4]: 423.6 ± 2 µM | IC50 [3, 5]: 847.3 ± 2 µM

O=C(/C=C/c1sc(Cl)nc1Cl)c1ccc(F)cc1 [Compound 11, (E)-1-(4-fluorophenyl)-3-(2,4-dichlorothiazol-5-yl)prop-2-en-1-one]
antitubercular activity of F compounds over the Cl-containing compounds [1]: 3.79 fold | MIC [1]: 20.7 ± 2 µM (≈ 6.25 µg/mL) | Mtb (H37Rv Strain) (MIC in µM) [1]: 20.68 ± 1 µM | IC50 [2]: > 70 µg/mL | melting point: 126 °C | IC50 [3, 4]: 847.3 ± 2 µM | IC50 [3, 5]: 423.6 ± 2 µM

O=C(/C=C/c1sc(Cl)nc1Cl)c1ccc(F)cc1F [Compound 12, (E)-1-(2,4-difluorophenyl)-3-(2,4-dichlorothiazol-5-yl)prop-2-en-1-one]
MIC [1]: 2.43 µM (≈ 0.778 µg/mL) | Mtb (H37Rv Strain) (MIC in µM) [1]: 2.43 ± 1 µM | antitubercular potency relative to the standard pyrazinamide [1]: 10.42 times | IC50 [2]: > 70 µg/mL | melting point: 134 °C | IC50 [3, 4]: 100 ± 1 µM

O=C(/C=C/c1sc(Cl)nc1Cl)c1cc(F)ccc1F [Compound 13, (E)-1-(2,5-difluorophenyl)-3-(2,4-dichlorothiazol-5-yl)prop-2-en-1-one]
MIC [1]: 39 ± 1 µM (≈ 12.5 µg/mL) | IC50 [2]: > 70 µg/mL | melting point: 129 °C | IC50 [3, 4]: 3198.7 ± 2 µM

O=C(/C=C/c1sc(Cl)nc1Cl)c1c(F)cccc1F [Compound 14, (E)-1-(2,6-difluorophenyl)-3-(2,4-dichlorothiazol-5-yl)prop-2-en-1-one]
MIC [1]: 9.74 ± 2 µM (≈ 3.12 µg/mL) | antitubercular potency relative to the standard pyrazinamide [1]: 2.6 times | IC50 [2]: > 70 µg/mL | melting point: 141 °C | IC50 [3, 4]: 25 ± 2 µM

O=C(/C=C/c1sc(Cl)nc1Cl)c1ccc(F)c(F)c1 [Compound 15, (E)-1-(3,4-difluorophenyl)-3-(2,4-dichlorothiazol-5-yl)prop-2-en-1-one]
MIC [1]: 39 ± 1 µM (≈ 12.5 µg/mL) | IC50 [2]: > 70 µg/mL | melting point: 145 °C | IC50 [3, 4]: 799.7 ± 1 µM

O=C(/C=C/c1sc(Cl)nc1Cl)c1cc(F)cc(F)c1 [Compound 16, (E)-1-(3,5-difluorophenyl)-3-(2,4-dichlorothiazol-5-yl)prop-2-en-1-one]
MIC [1]: 156 ± 2 µM (≈ 50 µg/mL) | IC50 [2]: > 70 µg/mL | melting point: 109 °C | IC50 [3, 4]: 3198.7 ± 1 µM

O=C(/C=C/c1sc(Cl)nc1Cl)c1ccccn1 [Compound 17, (E)-3-(2,4-dichlorothiazol-5-yl)-1-(pyridin-2-yl)prop-2-en-1-one]
MIC [1]: 350.7 ± 2 µM (≈ 100 µg/mL) | IC50 [2]: > 70 µg/mL | melting point: 156 °C | IC50 [3, 4]: 14 ± 1 µM

O=C(/C=C/c1sc(Cl)nc1Cl)c1cccnc1 [Compound 18, (E)-3-(2,4-dichlorothiazol-5-yl)-1-(pyridin-3-yl)prop-2-en-1-one]
MIC [1]: 701.4 ± 1 µM (≈ 200 µg/mL) | IC50 [2]: > 70 µg/mL | melting point: 162 °C | IC50 [3, 4]: 28.1 ± 1 µM

O=C(/C=C/c1sc(Cl)nc1Cl)c1ccncc1 [Compound 19, (E)-3-(2,4-dichlorothiazol-5-yl)-1-(pyridin-4-yl)prop-2-en-1-one]
MIC [1]: 350.7 ± 2 µM (≈ 100 µg/mL) | IC50 [2]: > 70 µg/mL | melting point: 177 °C | IC50 [3, 4]: 14 ± 1 µM

O=C(/C=C/c1sc(Cl)nc1Cl)c1nccs1 [Compound 20, (E)-3-(2,4-dichlorothiazol-5-yl)-1-(thiazol-2-yl)prop-2-en-1-one]
MIC [1]: 343.4 ± 1 µM (≈ 100 µg/mL) | IC50 [2]: > 70 µg/mL | melting point: 127 °C | IC50 [3, 4]: 6.86 ± 1 µM

CN(Cc1cnc2nc(N)nc(N)c2n1)c1ccc(C(=O)N[C@@H](CCC(=O)O)C(=O)O)cc1 [Methotrexate, reference compound]
IC50 [2]: > 70 µg/mL | IC50 [3, 4]: 11 ± 1 µM

NC(=O)c1cnccn1 [Pyrazinamide, reference compound]
MIC [1]: 25.3 µM (≈ 3.12 µg/mL) | Mtb (H37Rv Strain) (MIC in µM) [1]: 25.34 ± 2 µM

(E)-1-(2,4-dichlorophenyl)-3-(2,4-dichlorothiazol-5-yl)prop-2-en-1-one [Compound 5]
Mtb (H37Rv Strain) (MIC in µM) [1]: 35.40 ± 2 µM | Normal Liver Cell Line (L02) (IC50 in µg/mL) ([2]; same protocol as DU-145): >70 µg/mL | IC50 [3, 5]: 90.6 ± 1 µM
